According to patent publication US10925881B2, “Treatment of conditions associated with hyperinsulinaemia” (Tensha Therapeutics, Inc., priority 2014, dated 2021):
Read-outs that look alike come from different tables or passages of the source.

Legend:
BRD4(1) = BRD4(1) (Homo sapiens (Human), UniProt O60885); assay: Alpha-assay binding, BRD4 site 1; settings: for binding activity with the BRD4 site 1: result in words
Experimental: The binding activity of lead compounds with the BRD4 site 1 was determined by Alpha-assay with a 12-point dose response curve.

BRD4(2) = BRD4(2) (Homo sapiens (Human), UniProt O60885); assay: Alpha-assay binding, BRD4 site 2; settings: for binding activity with the BRD4 site 2: result in words
RIN-m = assay: Cell Titer-Glo rat insulinoma cell assay, RIN-m; assay type: cell-based
Experimental: (§1) Paclitaxel was used as a positive control.
(§2) Cells were seeded at 5000 cells per well in a 96-well microculture plate in a total volume of 100 μl/well and incubated for 24 hours. […] The concentrations tested for paclitaxel were, 10 μM, 2.5 μM, 0.625 μM, 0.156 μM, 0.0391 μM, 0.00977 μM, 0.00244 μM, 0.000610 μM, 0.000153 μM, and 0.0000381 μM. Duplicate data for RIN-5F was obtained where the test concentrations for paclitaxel were, 1 μM, 0.25 μM, 0.0625 μM, 0.0156 μM, 0.00391 μM, 0.000977 μM, 0.000244 μM, 0.0000610 μM, 0.0000153 μM, and 0.00000381 μM. After 168-192 total hours of culture 100 μl of media was removed from each well and 50 μl of Cell Titer-Glo (Promega #G7571) was added to each well. The plate was shaken for 2 minutes and allowed to equilibrate for 10 minutes. Luminescence was measured on a Tecan GENios microplate reader. Percent inhibition of cell viability was calculated relative to untreated control wells. All tests were performed in triplicate or quadruplicates at each concentration level. IC50 values were calculated using Prism 6.00 curve-fitting with a four parameter-logistic equation.
(§3) Cells were seeded at 5000 cells per well in a 96-well microculture plate in a total volume of 100 μl/well and incubated for 24 hours. […] After 168-192 total hours of culture 100 μl of media was removed from each well and 50 μl of Cell Titer-Glo (Promega #G7571) was added to each well. The plate was shaken for 2 minutes and allowed to equilibrate for 10 minutes. Luminescence was measured on a Tecan GENios microplate reader. Percent inhibition of cell viability was calculated relative to untreated control wells. All tests were performed in triplicate or quadruplicates at each concentration level. IC50 values were calculated using Prism 6.00 curve-fitting with a four parameter-logistic equation.

RIN-14B = assay: Cell Titer-Glo rat insulinoma cell assay, RIN-14B; assay type: cell-based
Experimental: as §1, §2, §3

RIN-m5F = assay: Cell Titer-Glo rat insulinoma cell assay, RIN-m5F; assay type: cell-based
Experimental: as §1, §2, §3

[1] = tested on: four rat insulinoma (RIN) cell lines, RIN-14B, RIN-m5F, RIN-m, and RIN-5; assay: Cell Titer-Glo rat insulinoma cell assay, statement for all four cell lines; assay type: cell-based; settings: for cell viability at higher concentrations: cytotoxic effect; for IC50: read-out: IC50 values, all cell lines
Experimental: as §1
(§4) The plate was shaken for 2 minutes and allowed to equilibrate for 10 minutes. Luminescence was measured on a Tecan GENios microplate reader. Percent inhibition of cell viability was calculated relative to untreated control wells. All tests were performed in triplicate or quadruplicates at each concentration level. IC50 values were calculated using Prism 6.00 curve-fitting with a four parameter-logistic equation.
as §4

RIN-5F = assay: Cell Titer-Glo rat insulinoma cell assay, RIN-5F; assay type: cell-based; settings: cell viability after 168-192 total hours of culture
Experimental: as §1, §2, §3

[2] = at least one biological assay (not specified)
[3] = tested on: RIN-m5F rat insulinoma cells; assay: RNA-Seq expression analysis of JQ1 treated RIN-m5F insulinoma cells; assay type: cell-based; settings: 500 nM, 24 hr; result in words
Experimental: As shown below, BET inhibition disrupts both oncogenic and pancreatic islet cell transcriptional profiles.
Cells were scraped and total RNA was extracted and purified using a Qiagen RNeasy Mini Kit (cat. 74104) as described in the manufacturer's protocol. […] For each sample, 4 μg of total RNA was then used in Illumina's TruSeq RNA sample preparation V2 kit. […] Libraries were sequenced on Illumina NextSeq 500 as paired-end 75-nt reads.
Sequence reads were analyzed with the TopHat—Cufflinks software pipeline. Average size of library molecules was 400 bp, therefore the—r parameter was set to […]. (Versions were: TopHat v2.0.9, Bowtie 2.1.0.0, Cufflinks v2.1.1). The rat (rn5) gene reference GTF file was obtained from Illumina iGenomes.

Cc1sc2c(c1C)C(c1ccc(Cl)cc1)=N[C@@H](CC(=O)NCCN1CCOCC1)c1nnc(C)n1-2 (stereo in doubt) [(S)-JQ33]
IC50 (BRD4(1); 12-point dose response curve, read-out: Bio-assay IC50 BRD4(1)): 85 nM
binding activity with the BRD4 site 1 (BRD4(1)): excellent binding activity
IC50 (BRD4(2); 12-point dose response curve, read-out: Bio-assay IC50 BRD4(2)): 29.5 nM
binding activity with the BRD4 site 2 (BRD4(2)): excellent binding activity

Cc1sc2c(c1C)C(c1ccc(Cl)cc1)=N[C@@H](CC(=O)NCCCN1CCN(C)CC1)c1nnc(C)n1-2 (stereo in doubt) [(S)-JQ35]
binding activity with the BRD4 site 1 (BRD4(1)): excellent binding activity
IC50 (RIN-m; Example 8 additional data, cell viability after 168-192 total hours of culture, read-out: IC50 Values, RIN-m): 151 nM
IC50 (RIN-14B; Example 8 additional data, cell viability after 168-192 total hours of culture, read-out: IC50 Values, RIN-14B): 207 nM
IC50 (RIN-m5F; Example 8 additional data, cell viability after 168-192 total hours of culture, read-out: IC50 Values, RIN-m5F): 188 nM
binding activity with the BRD4 site 2 (BRD4(2)): excellent binding activity
cell viability at higher concentrations ([1]; Example 8): ~0%
IC50 ([1]; Rattus norvegicus, RIN-m5F, Example 8): < 200 nM
IC50 (RIN-5F; Example 8 additional data, two values, read-out: IC50 Values, RIN-5F): 215 nM
IC50 (RIN-5F; Rattus norvegicus, Example 8 additional data, two values, read-out: IC50 Values, RIN-5F): 183 nM

Cc1sc2c(c1C)C(c1ccc(Cl)cc1)=N[C@@H](CC(=O)OC(C)(C)C)c1nnc(C)n1-2 [(S)-JQ1, (S)-tert-Butyl 2-(4-(4-chlorophenyl)-2,3,9-trimethyl-6H-thieno[3,2-f][1,2,4]triazolo [4,3-a][1,4]diazepin-6-yl)acetate]
IC50 (RIN-m; read-out: IC50 Values, RIN-m, Example 3, Table 1, cell viability after 168-192 total hours of culture): 34 nM
IC50 (RIN-m; read-out: IC50 Values, RIN-m, Example 8 additional data, cell viability after 168-192 total hours of culture): 29.3 nM
IC50 (RIN-14B; read-out: IC50 Values, RIN-14B, Example 3, Table 1, cell viability after 168-192 total hours of culture): 17 nM
IC50 (RIN-14B; read-out: IC50 Values, RIN-14B, Example 8 additional data, cell viability after 168-192 total hours of culture): 20.7 nM
IC50 (RIN-m5F; read-out: IC50 Values, RIN-m5F, Example 3, Table 1, cell viability after 168-192 total hours of culture): 31 nM
IC50 (RIN-m5F; read-out: IC50 Values, RIN-m5F, Example 8 additional data, cell viability after 168-192 total hours of culture): 51 nM
cell viability at higher concentrations ([1]; Example 3): ~0%
cell viability at higher concentrations ([1]; Example 8): ~0%
IC50 ([1]; Rattus norvegicus, RIN-m5F): < 100 nM
IC50 ([1]; Example 8): < 100 nM
IC50 (RIN-5F; Rattus norvegicus, read-out: IC50 Values, RIN-5F, Example 3, Table 1, duplicate data): 96 nM
IC50 (RIN-5F; Rattus norvegicus, read-out: IC50 Values, RIN-5F, Example 8 additional data, two values): 52 nM
IC50 (RIN-5F; read-out: IC50 Values, RIN-5F, Example 3, Table 1, duplicate data): 61 nM
IC50 (RIN-5F; read-out: IC50 Values, RIN-5F, Example 8 additional data, two values): 73.1 nM

Cc1sc2c(c1C)C(c1ccc(Cl)cc1)=N[C@@H](CC(=O)N/N=C/c1ncc[nH]1)c1nnc(C)n1-2 [(S)-JQ6]
binding activity with the BRD4 site 1 (BRD4(1)): excellent binding activity
binding activity with the BRD4 site 2 (BRD4(2)): excellent binding activity

Cc1sc2c(c1C)C(c1ccc(Cl)cc1)=N[C@@H](CC(=O)NCCc1cnc[nH]1)c1nnc(C)n1-2 [(S)-JQ8]
binding activity with the BRD4 site 1 (BRD4(1)): excellent binding activity
binding activity with the BRD4 site 2 (BRD4(2)): excellent binding activity

Cc1sc2c(c1C)C(c1ccc(Cl)cc1)=N[C@@H](CC(=O)NCCN1CCN(C)CC1)c1nnc(C)n1-2 [(S)-JQ13]
binding activity with the BRD4 site 1 (BRD4(1)): excellent binding activity
binding activity with the BRD4 site 2 (BRD4(2)): excellent binding activity

Cc1sc2c(c1C)C(c1ccc(Cl)cc1)=NC(CC(=O)NN)c1nnc(C)n1-2 (stereo not shown) [Compound 3]
activity in at least one biological assay [2]: showed activity

Cc1sc2c(c1C)C(c1ccc(Cl)cc1)=NC(CC(=O)OC(C)(C)C)c1nnc(C)n1-2 (stereo not shown) [JQ1, tert-Butyl 2-(4-(4-chlorophenyl)-2,3,9-trimethyl-6H-thieno[3,2-f][1,2,4]triazolo[4,3-a][1,4]diazepin-6-yl)acetate]
genes with decreased versus increased expression [3]: larger number of genes with decreased expression as compared to increased expression

CC(=O)O[C@H]1C(=O)[C@@]2(C)[C@H]([C@H](OC(=O)c3ccccc3)[C@]3(O)C[C@H](OC(=O)[C@H](O)[C@@H](NC(=O)c4ccccc4)c4ccccc4)C(C)=C1C3(C)C)[C@]1(OC(C)=O)CO[C@@H]1C[C@@H]2O [Paclitaxel, reference compound]
IC50 (RIN-m; Example 3, Table 1, cell viability after 168-192 total hours of culture, read-out: IC50 Values, RIN-m): 0.718 nM
IC50 (RIN-14B; Example 3, Table 1, cell viability after 168-192 total hours of culture, read-out: IC50 Values, RIN-14B): 1.33 nM
IC50 (RIN-m5F; Example 3, Table 1, cell viability after 168-192 total hours of culture, read-out: IC50 Values, RIN-m5F): 0.43 nM
IC50 (RIN-5F; Example 3, Table 1, duplicate data, read-out: IC50 Values, RIN-5F): 3.14 nM
IC50 (RIN-5F; Rattus norvegicus, Example 3, Table 1, duplicate data, read-out: IC50 Values, RIN-5F): 1.63 nM
